Read-outs that look alike come from different tables or passages of the source.
Biological target: T1, TLR9 (Homo sapiens, UniProt Q9NR96)
T1 construct: expressed in transfected cells; host or cells: HEK293
T1 sequence (Q9NR96 26-1032): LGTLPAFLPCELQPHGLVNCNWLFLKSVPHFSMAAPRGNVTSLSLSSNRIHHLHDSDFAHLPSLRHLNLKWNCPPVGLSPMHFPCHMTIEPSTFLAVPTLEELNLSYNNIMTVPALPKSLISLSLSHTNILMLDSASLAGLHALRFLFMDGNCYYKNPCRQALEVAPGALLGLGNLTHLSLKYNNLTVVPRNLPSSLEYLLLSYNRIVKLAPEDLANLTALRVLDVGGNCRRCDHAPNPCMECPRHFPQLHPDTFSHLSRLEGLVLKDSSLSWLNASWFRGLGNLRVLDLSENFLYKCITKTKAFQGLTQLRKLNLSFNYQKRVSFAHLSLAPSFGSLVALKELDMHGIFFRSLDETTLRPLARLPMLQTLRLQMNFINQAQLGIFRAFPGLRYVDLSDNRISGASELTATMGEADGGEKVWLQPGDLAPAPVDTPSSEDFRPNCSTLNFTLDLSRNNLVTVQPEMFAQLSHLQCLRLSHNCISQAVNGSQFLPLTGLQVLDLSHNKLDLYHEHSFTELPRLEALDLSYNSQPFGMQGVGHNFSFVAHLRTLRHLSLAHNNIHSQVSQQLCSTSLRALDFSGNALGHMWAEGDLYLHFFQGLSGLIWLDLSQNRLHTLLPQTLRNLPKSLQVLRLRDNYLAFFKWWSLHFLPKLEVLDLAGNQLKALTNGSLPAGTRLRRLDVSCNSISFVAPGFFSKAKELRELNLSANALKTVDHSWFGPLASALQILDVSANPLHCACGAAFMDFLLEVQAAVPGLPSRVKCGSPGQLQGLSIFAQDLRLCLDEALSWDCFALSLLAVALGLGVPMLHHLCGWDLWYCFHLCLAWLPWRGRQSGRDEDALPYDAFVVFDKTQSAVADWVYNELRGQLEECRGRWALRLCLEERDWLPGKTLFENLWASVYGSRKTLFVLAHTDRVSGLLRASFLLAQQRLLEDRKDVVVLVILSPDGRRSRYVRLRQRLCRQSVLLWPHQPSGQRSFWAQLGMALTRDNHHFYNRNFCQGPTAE
Experiment: TLR9 screening of (+)-morphinan library, SEAP reporter in HEK293 cells expressing TLR9
Assay type: cell-based
Conditions: activator ODN2006; for OD 650 nm (mean ± sd): control (no activator) 0.14, activator 1.42 OD
How it was run: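 HEK293 cells expressing TLR9 with an NF-κB-inducible SEAP reporter were preincubated with compound at 10 μM and 100 nM for 30 min at 37 °C, then stimulated with ODN2006. SEAP was read as OD 650 nm after 16-20 h, in triplicate.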

[1] = HEK293, read-out: % Inhibition (mean), 100 nM
[2] = HEK293, read-out: % Inhibition (mean), 10 μM
[3] = HEK293, 100 nM, read-out: % Inhibition (mean)
[4] = HEK293, 10 μM, read-out: % Inhibition (mean)

Compound | OD 650 nm (mean ± sd) (100 nM) | OD 650 nm (mean ± sd) (10 μM) | inhibition at 0.1 µM [1] | inhibition at 10 µM [2] | % Inhibition (mean) (100 nM, 0.1 µM) | % Inhibition (mean) (10 μM) | inhibition at 0.1 µM [3] | inhibition at 10 µM [4]
C=C1CC[C@]2(O)[C@@H]3Cc4ccc(O)c5c4[C@]2(CCN3CC2CC2)[C@@H]1O5 [II-77] | 1.24 ± 0.04 OD | 0.98 ± 0.02 OD | 13% | 37% | – | – | – | –
CO[C@]12CCC(=O)[C@H]3Oc4c(O)ccc5c4[C@]31CCN(CC1CC1)[C@H]2C5 [II-79] | 1.07 ± 0.03 OD | 1.06 ± 0.11 OD | 25% | 25% | – | – | – | –
Oc1ccc2c3c1O[C@@H]1[C@H](O)CC[C@]4(O)[C@H](C2)N(CC2CCC2)CC[C@@]314 [II-82] | 1.37 ± 0.02 OD | 0.49 ± 0.03 OD | 4% | 65% | – | – | – | –
COc1ccc2c3c1O[C@@H]1C(OC(C)=O)=CC[C@]4(O)[C@H](C2)N(C(C)=O)CC[C@@]314 [II-83] | 1.40 ± 0.13 OD | 1.11 ± 0.09 OD | 1% | 22% | – | – | – | –
COc1ccc2c3c1O[C@@H]1C(=O)CC[C@]4(O)[C@H](C2)N(C(C)=O)CC[C@@]314 [II-84] | 1.44 ± 0.06 OD | 1.51 ± 0.08 OD | -1% | -6% | – | – | – | –
COc1ccc2c3c1O[C@@H]1C(=O)CC[C@@H]4[C@H](C2)N(C(=O)C2CCC2)CC[C@@]314 [II-85] | 1.45 ± 0.04 OD | 1.45 ± 0.04 OD | -2% | -2% | – | – | – | –
COC1=CC=C2[C@@H]3Cc4c(Br)cc(OCc5ccccc5)c5c4[C@]2(CCN3CC2CC2)[C@@H]1O5 [II-86] | 1.15 ± 0.11 OD | 0.13 ± 0.03 OD | 19% | 91% | – | – | – | –
COC1=CCC2[C@@H]3Cc4ccc(OC)c5c4[C@]2(CCN3CC2CC2)[C@@H]1O5 (some centres unmarked) [II-87] | 1.28 ± 0.06 OD | 0.45 ± 0.01 OD | – | – | 10% | 69% | – | –
O=C1CC[C@@H]2[C@@H]3Cc4ccc(OCc5ccccc5)c5c4[C@]2(CCN3CC2CC2)[C@@H]1O5 [II-88] | 1.12 ± 0.15 OD | 0.13 ± 0.01 OD | 21% | 91% | – | – | – | –
C=CCN1CC[C@@]23c4c5ccc(OC)c4O[C@@H]2C2(CC[C@@H]3[C@@H]1C5)OCCO2 [II-89] | 1.53 ± 0.10 OD | 1.08 ± 0.02 OD | -8% | 24% | – | – | – | –
[O-][N+]1(CC2CC2)CC[C@@]23c4c5ccc(O)c4O[C@@H]2[C@H](O)CC[C@]3(O)[C@@H]1C5 (some centres unmarked) [II-90] | 1.39 ± 0.03 OD | 0.17 ± 0.05 OD | 2% | 88% | – | – | – | –
CCCNC1CCC2C3Cc4ccc(OC)c5c4[C@]2(CCN3C)C1O5 (some centres unmarked) [II-91] | 0.12 ± 0.01 OD | 0.09 ± 0.01 OD | 92% | 93% | – | – | – | –
COC(=O)[C@@H](C)NC1CCC2C3Cc4ccc(OC)c5c4[C@]2(CCN3C)C1O5 (some centres unmarked) [II-92] | 1.09 ± 0.03 OD | 0.73 ± 0.06 OD | 23% | 48% | – | – | – | –
COC1=CCC2[C@@H]3Cc4ccc(OC)c5c4[C@]2(CCN3CC2CC2)[C@@H]1O5 (some centres unmarked) [II-95] | 1.11 ± 0.04 OD | 0.37 ± 0.03 OD | – | 74% | 22% | – | – | –
COC1=CCC2[C@@H]3Cc4ccc(OC)c5c4[C@]2(CCN3C)[C@@H]1O5 (some centres unmarked) [II-96] | 1.15 ± 0.06 OD | 0.42 ± 0.02 OD | 19% | 71% | – | – | – | –
COc1ccc2c3c1O[C@@H]1C4(CCC5[C@H](C2)N(CC2CC2)CC[C@]351)OCCO4 (some centres unmarked) [II-97] | 1.22 ± 0.02 OD | 1.42 ± 0.07 OD | 14% | 0% | – | – | – | –
COc1ccc2c3c1O[C@@H]1C(OC)(OC)CCC4[C@H](C2)N(CC2CC2)CC[C@]341 (some centres unmarked) [II-99] | 1.32 ± 0.00 OD | 0.14 ± 0.01 OD | 7% | 90% | – | – | – | –
COC1=CCC2[C@@H]3Cc4ccc(OC)c5c4[C@]2(CCN3C(=O)Oc2ccccc2)[C@@H]1O5 (some centres unmarked) [II-100] | 1.16 ± 0.02 OD | 1.45 ± 0.11 OD | 18% | -2% | – | – | – | –
COc1ccc2c3c1O[C@@H]1C(OC)(OC)C(Br)CC4[C@H](C2)N(C)CC[C@]341 (some centres unmarked) [II-101] | 1.35 ± 0.06 OD | 0.94 ± 0.02 OD | 5% | 34% | – | – | – | –
COc1ccc2c(c1)CCN[C@@H]2Cc1ccc(OC)c(O)c1 [III-1] | 1.34 ± 0.06 OD | 0.67 ± 0.01 OD | – | – | – | – | 6% | 53%
COc1ccc2c(c1)CCN(CC1CC1)[C@@H]2Cc1ccc(OC)c(O)c1 [III-3] | 1.03 ± 0.03 OD | 0.13 ± 0.01 OD | – | – | – | – | 27% | 91%
COc1ccc2c(c1)CCN(CC1CCC1)[C@@H]2Cc1ccc(OC)c(O)c1 [III-4] | 1.04 ± 0.04 OD | 0.11 ± 0.01 OD | – | – | – | – | 27% | 92%
COc1ccc2c(c1)CCN(C)[C@@H]2Cc1ccc(OC)c(O)c1 [III-5] | 1.11 ± 0.02 OD | 0.29 ± 0.01 OD | – | – | – | – | 22% | 80%

— US10363251B2, “(+)-morphinans as antagonists of toll-like receptor 9 and therapeutic uses thereof” (Mallinckrodt LLC, priority 2009, dated 2019)
